Biological target: EGFR (UniProt P00533)
Sequence (P00533 whole entry, looked up): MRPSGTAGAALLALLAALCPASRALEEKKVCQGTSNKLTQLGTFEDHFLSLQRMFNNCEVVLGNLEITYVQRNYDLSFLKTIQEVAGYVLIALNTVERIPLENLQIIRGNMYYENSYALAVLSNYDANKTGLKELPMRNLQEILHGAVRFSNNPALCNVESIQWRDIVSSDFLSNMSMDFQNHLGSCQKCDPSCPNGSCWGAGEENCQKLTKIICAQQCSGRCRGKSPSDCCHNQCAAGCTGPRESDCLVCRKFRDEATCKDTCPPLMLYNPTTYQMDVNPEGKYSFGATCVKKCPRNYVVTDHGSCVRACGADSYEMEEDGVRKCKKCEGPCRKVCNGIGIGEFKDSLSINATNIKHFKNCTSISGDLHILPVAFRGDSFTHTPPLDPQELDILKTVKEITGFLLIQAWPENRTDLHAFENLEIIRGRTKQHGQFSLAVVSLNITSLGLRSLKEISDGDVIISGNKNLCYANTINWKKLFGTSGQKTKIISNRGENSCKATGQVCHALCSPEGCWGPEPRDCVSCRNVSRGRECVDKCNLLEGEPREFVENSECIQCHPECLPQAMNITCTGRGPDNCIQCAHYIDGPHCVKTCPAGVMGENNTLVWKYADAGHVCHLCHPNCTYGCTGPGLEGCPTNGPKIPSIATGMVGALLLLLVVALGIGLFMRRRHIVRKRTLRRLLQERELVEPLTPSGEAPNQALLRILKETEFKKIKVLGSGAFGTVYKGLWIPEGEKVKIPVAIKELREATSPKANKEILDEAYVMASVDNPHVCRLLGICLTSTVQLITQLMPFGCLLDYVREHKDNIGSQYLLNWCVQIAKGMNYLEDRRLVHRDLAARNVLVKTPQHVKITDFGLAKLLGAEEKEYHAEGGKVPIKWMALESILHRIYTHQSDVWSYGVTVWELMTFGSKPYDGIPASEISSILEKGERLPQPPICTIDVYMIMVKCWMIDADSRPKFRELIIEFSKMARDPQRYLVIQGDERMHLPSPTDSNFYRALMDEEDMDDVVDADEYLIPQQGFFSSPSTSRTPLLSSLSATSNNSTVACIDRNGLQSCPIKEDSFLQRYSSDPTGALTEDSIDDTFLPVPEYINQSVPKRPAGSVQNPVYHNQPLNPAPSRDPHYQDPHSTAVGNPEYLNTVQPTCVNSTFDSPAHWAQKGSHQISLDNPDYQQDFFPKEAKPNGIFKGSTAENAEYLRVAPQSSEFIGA

Compound | IC50 [nM]
COc1cc2c(Nc3ccc(Cl)c(Cl)c3)ncnc2cc1OCC1CN(CCCCCCO)CCO1 (centres undefined) | < 50
COc1cc2c(Nc3ccc(Cl)c(Cl)c3)ncnc2cc1OCC1CN(C(=O)c2cccnc2Cl)CCO1 (centres undefined) | < 50
COc1cc2c(Nc3cc(Cl)c(Cl)cc3F)ncnc2cc1OC[C@@H]1CO[C@H]2[C@@H]1OC[C@@H]2O | < 50
COc1cc2c(Nc3cccc(Cl)c3C)ncnc2cc1OCC1CN(C)CCO1 (centres undefined) | < 50
COc1cc2c(Nc3ccc(Cl)c(Cl)c3)ncnc2cc1OCC1CN(C(=O)Cc2ccc(Cl)cc2)CCO1 (centres undefined) | < 50
COc1cc2c(Nc3cc(Cl)ccc3C)ncnc2cc1O[C@@H]1CO[C@@H]2[C@H]1OC[C@H]2F | < 50
COc1cc2c(Nc3ccc(F)cc3)ncnc2cc1O[C@@H]1CO[C@@H]2[C@H]1OC[C@H]2F | < 50
COc1cc2c(Nc3ccc(Cl)c(Cl)c3)ncnc2cc1OCc1csc(COC(=O)c2ccccc2)n1 | < 50
COc1cc2c(Nc3ccc(Cl)c(Cl)c3Cl)ncnc2cc1OCC1CN(C)CCO1 (centres undefined) | < 50

The next lines start with the values.

IC50 [nM] | Compound
< 50 | CCN1CCC[C@H]1c1noc(COc2cc3ncnc(Nc4ccc(Cl)c(Cl)c4)c3cc2OC)n1
< 50 | COCCN1CCCOC(COc2cc3ncnc(Nc4ccc(Cl)c(Cl)c4)c3cc2OC)C1 (centres undefined)
< 50 | COc1cc2c(Nc3ccc(Cl)c(Cl)c3)ncnc2cc1O[C@H]1CO[C@H]2[C@@H]1OC[C@@H]2OC
< 50 | COc1cc2c(Nc3ccc(Cl)c(Cl)c3)ncnc2cc1OCc1csc(N2CCNCC2)n1
< 50 | COc1cc2c(Nc3ccc(Cl)c(Cl)c3)ncnc2cc1OCCC1CCCCC1
